Patent publication US6479435B1, “Diaryl ethers and processes for their preparation and herbicidal and desiccant compositions containing them” (ISK Americas Incorporated, priority 1997, dated 2002)

What was measured:
[1] = system: Broadleaf Weeds; experiment: Post-emergent application in combination with other herbicides, percent control of broadleaf weeds; assay type: in vivo
Method: All test compounds were dissolved in acetone and applied to the test units in a volume of 187 l/ha. Test materials were applied at rates ranging from 125 g ai/ha to 1000 g ai/ha using a track sprayer equipped with a TJ8001E even flow flat fan spray nozzle. Plants were arranged on a shelf so that the top of the canopy (post-emerge) or top of the soil surface (pre-emerge) was 40-45 cm below the nozzle. Pressurized air was used to force the test solution through the nozzle as it was mechanically advanced (via electrically driven chain drive) over the top of all test plants/pots. This application simulates a typical commercial field herbicide application. […] For post-emerge tests, seeds were planted 8-21 days prior to the test to allow emergence and good foliage development prior to application of the test substances. At the time of the post-emerge application, plants of all species were usually at the 2-3 leaf stage of development. Post-emerge test units were always bottom-watered. At 14 days after application of the test materials, phytotoxicity ratings were recorded. A rating scale of 0-100 was used as previously described in Research Methods in Weed Science, 2nd edition, B. Truelove, Ed., Southern Weed Science Society, Auburn University, Auburn, Ala., 1977. Briefly, “0” corresponds to no damage and “100” corresponds to complete death of all plants in the test unit. This scale was used both to determine efficacy against weed species and damage to crop species. Herbicide activity data for various compounds of this invention, which are shown by compound number in Tables 1-9, are shown in Tables 13 and 14. […] (Note: Weed species abbreviations are from the Composite List of Weeds published by the Weed Science Society of America, 1989.) The following examples illustrate the utility of combinations of compounds of this invention and existing herbicides. The methods used are identical to those for the application of single compounds except the commercial formulations of existing herbicides were added to the spray mixture in the appropriate amounts before spraying. Combination Example 3. Post-emergent Application of Compound 9-1 with Nicosulfuron Combination Example 4. Postemergent Application of Compound 9-1 with Pyridate

[2] = system: Grass Weeds; experiment: Post-emergent application in combination with other herbicides, percent control of grass weeds; assay type: in vivo
Method: All test compounds were dissolved in acetone and applied to the test units in a volume of 187 l/ha. Test materials were applied at rates ranging from 125 g ai/ha to 1000 g ai/ha using a track sprayer equipped with a TJ8001E even flow flat fan spray nozzle. Plants were arranged on a shelf so that the top of the canopy (post-emerge) or top of the soil surface (pre-emerge) was 40-45 cm below the nozzle. Pressurized air was used to force the test solution through the nozzle as it was mechanically advanced (via electrically driven chain drive) over the top of all test plants/pots. This application simulates a typical commercial field herbicide application. In the post-emerge test, a commercial non-ionic surfactant was also included (0.25% v/v) to enhance wetting of the leaf surfaces Qf target plants at rates ranging from 63 g ai/ha to 1000 g ai/ha. For post-emerge tests, seeds were planted 8-21 days prior to the test to allow emergence and good foliage development prior to application of the test substances. At the time of the post-emerge application, plants of all species were usually at the 2-3 leaf stage of development. Post-emerge test units were always bottom-watered. At 14 days after application of the test materials, phytotoxicity ratings were recorded. A rating scale of 0-100 was used as previously described in Research Methods in Weed Science, 2nd edition, B. Truelove, Ed., Southern Weed Science Society, Auburn University, Auburn, Ala., 1977. Briefly, “0” corresponds to no damage and “100” corresponds to complete death of all plants in the test unit. This scale was used both to determine efficacy against weed species and damage to crop species. Herbicide activity data for various compounds of this invention, which are shown by compound number in Tables 1-9, are shown in Tables 13 and 14. […] (Note: Weed species abbreviations are from the Composite List of Weeds published by the Weed Science Society of America, 1989.) The following examples illustrate the utility of combinations of compounds of this invention and existing herbicides. The methods used are identical to those for the application of single compounds except the commercial formulations of existing herbicides were added to the spray mixture in the appropriate amounts before spraying. Combination Example 3. Post-emergent Application of Compound 9-1 with Nicosulfuron Combination Example 4. Postemergent Application of Compound 9-1 with Pyridate

CCS(=O)(=O)c1cccnc1Oc1cc(-n2c(=O)cc(C(F)(F)F)n(N)c2=O)c(F)cc1Cl [Compound 9-13, 1-Amino-3-[4-Chloro-2-fluoro-5-(3-ethylsulfonyl-2-pyridyloxy)phenyl]-6-trifluoromethyl-1,2,3,4-tetrahydropyrimidine-2,4-dione]
melting point: 277 to 279 °C

CS(=O)(=O)c1cccnc1Oc1cc(-n2c(=O)cc(C(F)(F)F)n(N)c2=O)c(F)cc1Cl [Compound 9-19, 1-Amino-3-[4-chloro-2-fluoro-5-(3-methylsulfonyl-2-pyridyloxy)phenyl]-6-trifluoromethyl-1,2,3,4-tetrahydropyrimidine-2,4-dione]
melting point: 276 to 278 °C

N#Cc1ccccc1Oc1cc(-n2c(=O)cc(C(F)(F)F)n(N)c2=O)c(F)cc1Cl [Compound 9-30, 1-Amino-3-[4-chloro2-fluoro-5-(2-cyanophenoxy)phenyl]-6-trifluoromethyl-1,2,3,4-tetrahydropyrimidine-2,4-dione]
melting point: 220 to 222 °C

N#Cc1c(F)cccc1Oc1cc(-n2c(=O)cc(C(F)(F)F)n(N)c2=O)c(F)cc1Cl [Compound 9-31, 1-Amino-3-[4-chloro-2-fluoro-5-(2-cyano-3-fluorophenoxy)phenyl]-6-trifluoromethyl-1,2,3,4-tetrahydropyrimidine-2,4-dione]
melting point: 230 to 233 °C

COc1cc(OC)nc(NC(=O)NS(=O)(=O)c2ncccc2C(=O)N(C)C)n1 [Nicosulfuron, reference compound]
Percent Control of Broadleaf Weeds ABUTH ([1]; 23 g ai/ha): 55%
Percent Control of Broadleaf Weeds AMARE ([1]; 23 g ai/ha): 70%
Percent Control of Broadleaf Weeds AMBEL ([1]; 23 g ai/ha): 0%
Percent Control of Broadleaf Weeds CASOB ([1]; 23 g ai/ha): 30%
Percent Control of Broadleaf Weeds CHEAL ([1]; 23 g ai/ha): 70%
Percent Control of Broadleaf Weeds IPOHE ([1]; 23 g ai/ha): 70%
Percent Control of Grass Weeds DIGSA ([2]; 23 g ai/ha): 80%
Percent Control of Grass Weeds ECHCG ([2]; 23 g ai/ha): 95%
Percent Control of Grass Weeds SETVI ([2]; 23 g ai/ha): 85%
Percent Control of Grass Weeds SORHA ([2]; 23 g ai/ha): 85%

CCCCCCCCSC(=O)Oc1cc(Cl)nnc1-c1ccccc1 [Pyridate, reference compound]
Percent Control of Broadleaf Weeds ABUTH ([1]; 527 g ai/ha): 60%
Percent Control of Broadleaf Weeds AMARE ([1]; 527 g ai/ha): 90%
Percent Control of Broadleaf Weeds AMBEL ([1]; 527 g ai/ha): 40%
Percent Control of Broadleaf Weeds CASOB ([1]; 527 g ai/ha): 10%
Percent Control of Broadleaf Weeds CHEAL ([1]; 527 g ai/ha): 85%
Percent Control of Broadleaf Weeds IPOHE ([1]; 527 g ai/ha): 80%
Percent Control of Grass Weeds DIGSA ([2]; 527 g ai/ha): 10%
Percent Control of Grass Weeds ECHCG ([2]; 527 g ai/ha): 50%
Percent Control of Grass Weeds SETVI ([2]; 527 g ai/ha): 95%
Percent Control of Grass Weeds SORHA ([2]; 527 g ai/ha): 10%
